Active and inactive are the calls of the source.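 The calls were made as follows: active = in confirmatory dose-response testing, peak deubiquitinase inhibition of 30% or more; inactive = the rest.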
target: Ubiquitin carboxyl-terminal hydrolase 28 (Homo sapiens) (UniProt Q96RU2); assay: Concentration-response biochemical assay confirming initial hits as inhibitors of ubiquitin-specific protease 28 (AID 1645866); settings: purified USP28, ubiquitin-rhodamine fluorescence, 30 min
Sequence (Q96RU2 whole entry, looked up): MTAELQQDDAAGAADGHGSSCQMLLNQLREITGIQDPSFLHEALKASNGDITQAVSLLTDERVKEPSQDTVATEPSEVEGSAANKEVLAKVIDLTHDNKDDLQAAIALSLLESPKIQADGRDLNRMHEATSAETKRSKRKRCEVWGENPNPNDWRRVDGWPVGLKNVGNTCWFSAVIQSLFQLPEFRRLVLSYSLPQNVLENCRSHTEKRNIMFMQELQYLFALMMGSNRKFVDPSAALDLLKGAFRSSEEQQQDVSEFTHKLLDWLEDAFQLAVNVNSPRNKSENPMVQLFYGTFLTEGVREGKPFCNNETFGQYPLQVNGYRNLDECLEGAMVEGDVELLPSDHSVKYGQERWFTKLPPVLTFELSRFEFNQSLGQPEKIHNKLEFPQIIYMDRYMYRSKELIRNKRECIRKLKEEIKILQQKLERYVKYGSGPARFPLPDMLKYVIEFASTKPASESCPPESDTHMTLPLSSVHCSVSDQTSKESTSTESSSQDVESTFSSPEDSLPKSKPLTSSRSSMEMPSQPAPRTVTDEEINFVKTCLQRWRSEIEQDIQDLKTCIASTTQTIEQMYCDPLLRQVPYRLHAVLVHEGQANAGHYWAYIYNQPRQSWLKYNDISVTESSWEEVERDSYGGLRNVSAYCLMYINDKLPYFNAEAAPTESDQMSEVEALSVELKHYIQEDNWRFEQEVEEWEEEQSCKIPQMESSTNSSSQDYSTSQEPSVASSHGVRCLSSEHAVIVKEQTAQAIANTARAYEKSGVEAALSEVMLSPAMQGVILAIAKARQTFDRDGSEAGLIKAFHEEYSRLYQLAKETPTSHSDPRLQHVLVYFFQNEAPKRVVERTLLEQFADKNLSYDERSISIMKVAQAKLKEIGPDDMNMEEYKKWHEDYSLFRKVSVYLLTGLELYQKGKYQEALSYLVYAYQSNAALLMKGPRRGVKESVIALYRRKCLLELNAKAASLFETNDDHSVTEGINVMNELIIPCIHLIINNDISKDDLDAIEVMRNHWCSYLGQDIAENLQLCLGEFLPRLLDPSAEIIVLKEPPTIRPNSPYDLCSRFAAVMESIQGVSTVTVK

| IC50 | SMILES |
| --- | --- |
| 24 µM | O=C(COc1ncnc2ccccc12)Nc1ccc2c(c1)OC1(CCCC1)O2 |
| 7.22 µM | O=C(COC(=O)CCc1ccc(S(=O)(=O)N2CCOCC2)cc1)Nc1ccc2c(c1)OCCO2 |
| > 50 µM (inactive) | CC(C(=O)NCc1ccc(F)cc1)n1cccc1C(=O)c1ccccc1 (centres undefined) |
| > 50 µM (inactive) | Cc1ccc(N=Cc2sc(O)c3ccccc23)c(C)c1 |
| 2.06 µM | COCCn1c(=O)[nH]c2cc(C(=O)NCCNc3ccc([N+](=O)[O-])cc3C#N)ccc2c1=O |
| > 50 µM (inactive) | Cc1ccc2c(=O)c3c([nH]c2c1C)CCN(CC(=O)NCc1ccccc1)C3 |
| 19.4 µM | COc1cccc(N2CCN(C(=O)Nc3ccc4c(c3)NC(=O)CO4)CC2)c1 |
| > 50 µM (inactive) | COc1ccc2cc1Oc1cc(ccc1OC)C(O)C13SSC4(C(=O)N1C)C(O)C1=COC=CC(OC2=O)C1N4C3=O (centres undefined) |
| 14 µM | Cc1nc(C(=O)NC2(O)C(=O)c3ccccc3C2=O)cs1 |
| 26.5 µM | Cc1cc(NC(=O)COc2ccc3oc4ccccc4c3c2)no1 |
| 35.9 µM | c1ccc2c(-c3nc(C4CC4)no3)nnc(NCc3ccncc3)c2c1 |
| 9.83 µM | CCOc1ccc2c(c1)c(=O)c(C(=O)c1ccccc1)cn2CC(=O)Nc1ccccc1 |
| 3.43 µM | COc1ccc(Cn2c(=O)[nH]c3cc(C(=O)NCCCN4CCN(c5cccc(Cl)c5)CC4)ccc3c2=O)cc1 |
| > 50 µM (inactive) | CC(C)(C)N=C1Nc2ncccc2NC12CCCN(C(=O)c1ccccc1)C2 (centres undefined) |
| > 50 µM (inactive) | CCOc1ccc(-c2cc3nc(C4CCN(C(=O)OC(C)(C)C)CC4)c(C(=O)Nc4cc(F)ccc4F)cn3n2)cc1 |
| 0.37 µM | CCc1nc(SCC(=O)Nc2ccccc2Cl)c2oc3ccccc3c2n1 |
| 22.1 µM | O=C(Cc1cc(-c2ccc(F)cc2)on1)NCc1ccccc1 |
| 16.8 µM | Cc1cccc(NC(=O)c2noc3c2CCc2sccc2-3)n1 |
| 47.8 µM | COc1ccc(C2CC(=O)Nc3ccc4ccccc4c32)c(OC)c1OC (centres undefined) |
| > 50 µM (inactive) | O=C(c1cnccn1)N1CCc2[nH]c3ccc(F)cc3c2C1 |
| 28.8 µM | COc1c2c(cc3cc(O)c4c(=O)cc(C)oc4c13)CCC2=O |
| 46.1 µM | CCc1ccccc1NC(=O)c1cc(-c2ccccn2)n[nH]1 |
| 31.5 µM | CCCOc1ccc(C(=O)Nc2ccc(S(=O)(=O)Nc3cc(C)nc(C)n3)cc2)cc1 |
| > 50 µM (inactive) | COC(=O)C1C(c2ccc(Cl)cc2Cl)C2(C(=O)c3ccccc3C2=O)C2C=Cc3ccccc3N12 (centres undefined) |

| IC50 | SMILES |
| --- | --- |
| > 50 µM (inactive) | CCN(C(=O)c1cc2c(Cl)nc3ccccc3c2s1)c1ccccc1F |
| 29.7 µM | COc1ccccc1N1CCN(C(=O)c2ccc3c(c2)N(Cc2cc(C)ccc2C)C(=O)c2ccccc2S3=O)CC1 (centres undefined) |
| 18.8 µM | CN(Cc1ccccc1)S(=O)(=O)c1ccc(S(=O)(=O)N2CCN(C(=O)c3cccnc3)CC2)cc1 |
| 6.98 µM | O=C(NC1CCN(Cc2ccccc2)CC1)c1[nH]nc2c1COc1ccccc1-2 |
| 23.9 µM | CC(C)c1cc2c(c(O)c1O)[C@@]13CCCC(C)(C)[C@@H]1C[C@@H]2OC3=O |
| 23.4 µM | O=C(CCc1nnc2n(Cc3ccccc3Cl)c(=O)c3ccccc3n12)NCc1ccccn1 |
| 9.8 µM | Cc1ccc(NC(=O)c2sc(=S)n(CCc3ccccc3)c2N)cc1 |
| > 50 µM (inactive) | Cc1ccc(CNC(=O)Cn2c(=O)n(-c3ccccc3)c3ncccc32)cc1 |
| > 50 µM (inactive) | O=S(=O)(c1ccc2c(c1)OCCO2)N(Cc1ccccc1)Cc1nnc(-c2ccccc2)o1 |
| 21.5 µM | Cc1nn(CC(=O)Nc2ccc(Br)c3cccnc23)c(=O)c2ccccc12 |
| 45.9 µM | COc1ccc(NC(=O)CSc2nc(N)c3c4c(sc3n2)COC(C)(C)C4)cc1 |
| > 50 µM (inactive) | Cc1cc(C)c2nc3c(cc2c1)CN(Cc1ccco1)C(=O)O3 |
| 8.27 µM | Cc1ccc(C(=O)Nc2cc3c4c(c2)CC(=O)N4CCC3)cc1 |
| 2.93 µM | CCOc1ccc2cc3c(nc2c1)OC(=O)N(Cc1ccc(C)o1)C3 |
| > 50 µM (inactive) | CC(C)(C)c1cc(C[C@@H]2C[C@H](NC(=O)N3CCOCC3)C2(C)C)no1 |
| 1.49 µM | CC(=O)C1=C(O)[C@]2(O)C(=O)c3c(c(C)c4ccc(C)c(O)c4c3O)C[C@H]2[C@@H](N)C1=O |
| 24.4 µM | COc1ccc(C)cc1NC(=O)C1CC(=O)Nc2nc3ccccc3n21 (centres undefined) |
| > 50 µM (inactive) | COc1ccc(-c2nonc2NC(=O)C(c2ccccc2)c2ccccc2)cc1OC |
| 1.97 µM | COc1ccc(-c2cc(-c3ccccc3)nc(SCC(N)=O)c2C#N)cc1OC |
| 27.5 µM | O=C(Cn1c(=O)n(Cc2ccco2)c(=O)c2ccc(C(=O)NC3CCCC3)cc21)NCc1ccco1 |
| > 50 µM (inactive) | O=C(CN1C(=O)COc2ccc(Cl)cc21)Nc1cccc2ncccc12 |
| 4.08 µM | COc1ccc(-c2nc3n(n2)C(CC(=O)Nc2cccc4ccccc24)C(=O)N3)cc1 (centres undefined) |
| > 50 µM (inactive) | Cc1cccc(O)c1-c1nc2c(-c3nc4c(C(=O)O)cccc4o3)cccc2o1 |
| > 50 µM (inactive) | COC1=CC(=O)c2c(O)c(C)c(CC(C)=O)c(O)c2C1=O |

| SMILES | IC50 |
| --- | --- |
| c1ccc(CCN2CCc3nc4cccnc4cc3C2)nc1 | > 50 µM (inactive) |

From PubChem BioAssay AID1645866 (Buhrlage Lab, Dana-Farber Cancer Institute and Novartis …, 2021)
